# Test results: patent US20040197852A1, “Method of preparing peptide fragment having cell death inhibitory activity” (priority 2001, published 2004)
# B1: Selenoprotein P untreated: full-length selenoprotein P purified from human plasma in Example 1, M.W. around 67,000 in SDS-PAGE (protein, UniProt P49908 20-381, looked up)
# Selenoprotein P: ESQDQSSLCKQPPAWSIRDQDPMLNSNGSVTVVALLQASUYLCILQASKLEDLRVKLKKEGYSNISYIVVNHQGISSRLKYTHLKNKVSEHIPVYQQEENQTDVWTLLNGSKDDFLIYDRCGRLVYHLGLPFSFLTFPYVEEAIKIAYCEKKCGNCSLTTLKDEDFCKRVSLATVDKTVETPSPHYHHEHHHNHGHQHLGSSELSENQQPGAPNAPTHPAPPGLHHHHKHKGQHRQGHPENRDMPASEDLQDLQKKLCRKRCINQLLCKLPTDSELAPRSUCCHCRHLIFEKTGSAITUQCKENLPSLCSUQGLRAEENITESCQURLPPAAUQISQQLIPTEASASURUKNQAKKUEUPSN
# Test system: Dami cells
# Assay: Cell death-inhibitory activity in Dami cells in serum-free medium with BSA and linoleic acid
# Assay type: cell-based, human
# Conditions: each 1 ppm selenium added to the system; Dami cells
# Text: For screening a cell death-inhibitory activity for isolation and identification of the C-terminal fragment of selenoprotein P as described above, a culture system of Dami cells, human megakaryoblasts, with serum free culture medium supplemented with albumin was suitably used. […] With culture medium containing 0.01 to 0.5% human serum albumin, the cells grow normally but on Day 4 and henceforth all the cells are put to death abruptly. A cell death-inhibitory activity in a sample may be measured by applying the sample to this culture system.
# The cells were cultured for three days and recovered for assay. The recovered cells were washed twice with SA/0.05% skimmed BSA (manufactured by SIGMA) containing 4 μM linoleic acid and suspended in the same medium at 3×10^4 cells/mL. The cell suspension was then added to a 96-well plate in each 200 μl for wells for sample addition or in each 100 μl for wells for serial dilution. To the wells for sample addition was added 2 μl sample and, after stirring, a serial dilution was made with the wells containing 100 μl cell suspension. The plate was incubated at 37° C. in CO2 incubator for 4 to 5 days followed by assessment. In this system, Dami cells will die in the wells added with samples having no activity but will survive in the wells added with samples having the activity on Day 4 and thenceforth. Thus, assessment was made with to what folds of dilution of tested samples the living cells could survive. Therefore, the higher the value in the following table, the higher a cell death-inhibitory activity.
# After washing the column with about 8 mL PBS, elution was made with 0.1 M glycine, pH 2.8. The eluate fractions were neutralized with about 1/10 amount of 1 M Tris-HCl. The fraction that passed through chromatographic column and the washing fractions were pooled, concentrated with SpeedVac, and dialyzed against PBS.
row,Molecule,Cell death-inhibitory activity (Folds of dilution)
1,B1,5000 Folds of dilution

# Same assay, conditions: selenoprotein P digested with 1/10 weight of enzyme, 37° C., 24 hours; 2 μl sample serially diluted; Dami cell survival at 4 to 5 days
row,Molecule,Cell death-inhibitory activity (Folds of dilution)
1,Activated protein C,800 Folds of dilution
2,Elastase,600 Folds of dilution
3,Plasmin,600 Folds of dilution
4,Thrombin,600 Folds of dilution
5,Trypsin,600 Folds of dilution
6,B1,400 Folds of dilution
